For 4 molecules, Kb results are on record in patent publication US7381750B2, “Amino-phenoxymethyl-benzamide opioid receptor antagonists” (Eli Lilly and Company, priority 2004, dated 2008).

The target in assay [1] is T1, cloned human mu opioid receptor (Homo sapiens, UniProt P35372).
T1 construct: expressed in transfected cells
The experiment in a line: GTP-γ-S binding assay, antagonist mode (mu). Format: biochemical. Particulars: functional antagonist potency vs DAMGO 1 micromolar; membranes, [35S]GTP-γ-S SPA; Cheng-Prusoff. As to the method:
(§1) The functional antagonist potency (Kb) of the sample compounds was determined using the GTPγS binding assay. GTPgS-based functional assays provide an in vitro measure of the activity of opioid agonists and antagonists. Opioid reference compounds or test compound are incubated with membrane homogenate from cells expressing the cloned human mu, kappa or delta opioid receptor and radiolabeled [35S]GTPgS. If the compound activates the opioid receptor, an increase in the binding of radiolabeled GTPgS is observed. […] These tests provide an in vitro measurement of the activity of the compound at human opioid receptors.
(§2) An SPA-based GTP-γ-S assay format was developed based on previous opioid (Emmerson et al., J. Pharm Exp Ther 278, 1121, 1996; Horng et al., Society for Neuroscience Abstracts, 434.6, 2000) and muscarinic (DeLapp et al., JPET 289, 946, 1999) assay formats. Membranes were resuspended in 20 mM HEPES, 100 mM NaCl, 5 mM MgCl2, 1 mM DTT, and 1 mM EDTA. Fifty (50) […] of GTP-γ-[35S], compound, membrane suspension (20 microgram/well), and wheat germ agglutinin coated SPA beads (1 mg/well) were added to clear bottom 96 well assay plates. GDP ([…]) was added to the membrane solution prior to addition to the assay plates. Plates were sealed and incubated for four hours at room temperature then placed in a refrigerator overnight to allow the beads to settle. Signal stability at 4° C. was determined to be >60 hours. Plates were warmed to room temperature and counted in a Wallac Microbeta scintillation counter. For antagonist assays, specific agonists were added at the following concentrations: (MOR) DAMGO 1 micromolar, (DOR) DPDPE 30 nM, (KOR) U69593 300 nM. Kb's were determined by Cheng-Prusoff equation (see Cheng and Prusoff, Biochem. Pharmacol. 22, 3099, 1973).
(In general: GTPγS is a poorly hydrolysed GTP analogue; its binding reports G protein activation.)

Assay [2] concerns the target T2, cloned human delta opioid receptor (Homo sapiens, UniProt P41143).
T2 construct: expressed in transfected cells
The experiment in a line: GTP-γ-S binding assay, antagonist mode (delta). To be noted: functional antagonist potency vs DPDPE 30 nM; membranes, [35S]GTP-γ-S SPA; Cheng-Prusoff. The class given is biochemical. As to the method:
as §1, §2

T1 sequence (P35372 whole entry): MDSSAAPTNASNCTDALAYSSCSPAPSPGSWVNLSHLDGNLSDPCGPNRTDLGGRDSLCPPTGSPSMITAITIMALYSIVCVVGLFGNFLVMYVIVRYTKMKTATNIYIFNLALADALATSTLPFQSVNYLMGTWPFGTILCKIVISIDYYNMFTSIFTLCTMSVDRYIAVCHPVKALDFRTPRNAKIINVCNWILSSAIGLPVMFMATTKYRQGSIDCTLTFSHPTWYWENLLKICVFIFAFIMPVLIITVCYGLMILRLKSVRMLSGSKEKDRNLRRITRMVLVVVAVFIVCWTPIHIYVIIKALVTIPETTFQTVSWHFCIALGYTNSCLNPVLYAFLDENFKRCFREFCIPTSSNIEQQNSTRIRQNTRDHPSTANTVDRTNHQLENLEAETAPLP
T2 sequence (P41143 whole entry): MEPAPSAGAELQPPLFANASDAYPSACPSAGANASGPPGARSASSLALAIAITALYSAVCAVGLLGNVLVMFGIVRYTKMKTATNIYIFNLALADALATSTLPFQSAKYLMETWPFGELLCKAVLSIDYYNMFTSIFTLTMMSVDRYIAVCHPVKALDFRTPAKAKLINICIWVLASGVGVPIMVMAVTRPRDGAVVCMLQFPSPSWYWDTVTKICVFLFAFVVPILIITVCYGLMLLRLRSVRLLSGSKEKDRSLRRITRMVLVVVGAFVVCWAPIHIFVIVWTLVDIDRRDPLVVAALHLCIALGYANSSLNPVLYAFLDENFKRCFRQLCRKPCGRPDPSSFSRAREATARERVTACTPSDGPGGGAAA

A word on the Kb: it is the equilibrium dissociation constant of an antagonist, usually derived from a functional assay. A higher Kb goes with a less potent antagonist. Turning to `CC(C)CCNCc1ccc(OCc2cccc(C(N)=O)c2)cc1` [Example 1, 3-{4-[(3-Methyl-butylamino)-methyl]-phenoxymethyl}-benzamide], the antagonist dissociation constant (Kb) is over 21 nM in assay [1] and over 41 nM in assay [2].
For `CC(C)CCNCc1ccc(OCc2ccc(C(N)=O)cc2)cc1` [Example 2, 4-{4-[(3-Methyl-butylamino)-methyl]-phenoxymethyl}-benzamide] the same measures were 62.9 nM and 337 nM.
The matching figures for `CC(C)CCNCc1ccc(COc2ccc(C(N)=O)cc2)cc1` [Example 4, 4-{4-[(3-Methyl-butylamino)-methyl]-benzyloxy}-benzamide]: over 23 nM and over 67 nM.
For `CC(C)CCNCc1ccc(OCCc2ccc(C(N)=O)cc2)cc1` [Example 5, 4-(2-{4-[(3-Methyl-butylamino)-methyl]-phenoxy}-ethyl)-benzamide] the same measures were over 23 nM and over 67 nM.
